Species: Rattus norvegicus
Test: Open TG-GATES - Regimen: Single
Assay type: toxicity, organism-based, Sprague-Dawley
Parameters: regimen Single, gender Male, age 6 weeks
Details: in vivo, po, 0 mg/kg, route gavage, dose level Control; for APTT / Bas / Eos / Fbg / Hb / Ht / Lym / MCH / MCHC / MCV / Mono / Neu / PT / Plat / RBC / Ret / WBC: tissue Blood; for KIDNEY_L / KIDNEY_R / KIDNEY_TOTAL: tissue Kidney; for LIVER: tissue Liver; for A/G / ALP / ALT / AST / BUN / CRE / Ca / Cl / DBIL / GLC / IP / K / LDH / Na / PL / RALB / TBIL / TC / TG / TP / gamma-GTP: tissue Plasma

## CC[C@H]1[C@@H]2C[C@H]3[C@@H]4N(C)c5ccccc5[C@]45C[C@@H]([C@@H]2[C@H]5O)N3[C@@H]1O [AJMALINE]
3 h
  TERMINAL_BW: 194.6 g
  APTT: 16.6 s
  Bas: 0%
  Eos: 1%
  Fbg: 202.8 mg/dL
  Hb: 12.8 g/dL
  Ht: 39.1%
  Lym: 80.2%
  MCH: 21.8 pg
  MCHC: 32.9%
  MCV: 66.3 fL
  Mono: 6.8%
  Neu: 12.2%
  PT: 11.6 s
  Plat: 109.9 x10_4/uL
  RBC: 589.2 x10_4/ul
  Ret: 12.5%
  WBC: 94.6 x10_2/uL
  KIDNEY_L: 0.9 g
  KIDNEY_R: 0.9 g
  KIDNEY_TOTAL: 1.9 g
  LIVER: 9.4 g
  A/G: 2.5
  ALP: 879.4 IU/L
  ALT: 34.6 IU/L
  AST: 66.8 IU/L
  BUN: 10.6 mg/dL
  CRE: 0.4 mg/dL
  Ca: 11.4 mg/dL
  Cl: 100.8 meq/L
  DBIL: 0.04 mg/dL
  GLC: 191.4 mg/dL
  IP: 9.5 mg/dL
  K: 4.4 meq/L
  LDH: 95.4 IU/L
  Na: 137.2 meq/L
  PL: 149 mg/dL
  RALB: 3.7 g/dL
  TBIL: 0.3 mg/dL
  TC: 82.4 mg/dL
  TG: 69.4 mg/dL
  TP: 5.3 g/dL
  gamma-GTP: 2 IU/L
6 h
  TERMINAL_BW: 192.3 g
  APTT: 16.9 s
  Bas: 0%
  Eos: 1.2%
  Fbg: 196.2 mg/dL
  Hb: 13 g/dL
  Ht: 39.5%
  Lym: 73.4%
  MCH: 21.5 pg
  MCHC: 32.8%
  MCV: 65.3 fL
  Mono: 10.6%
  Neu: 15%
  PT: 11.6 s
  Plat: 113.8 x10_4/uL
  RBC: 605.4 x10_4/ul
  Ret: 10.6%
  WBC: 102.3 x10_2/uL
  KIDNEY_L: 0.9 g
  KIDNEY_R: 0.9 g
  KIDNEY_TOTAL: 1.7 g
  LIVER: 8.3 g
  A/G: 2.2
  ALP: 832.4 IU/L
  ALT: 34.6 IU/L
  AST: 61.8 IU/L
  BUN: 9.6 mg/dL
  CRE: 0.5 mg/dL
  Ca: 10.7 mg/dL
  Cl: 103.4 meq/L
  DBIL: 0.042 mg/dL
  GLC: 187 mg/dL
  IP: 10 mg/dL
  K: 4.8 meq/L
  LDH: 72.6 IU/L
  Na: 138.8 meq/L
  PL: 133.2 mg/dL
  RALB: 3.5 g/dL
  TBIL: 0.4 mg/dL
  TC: 83.6 mg/dL
  TG: 64.8 mg/dL
  TP: 5.2 g/dL
  gamma-GTP: 1.6 IU/L
9 h
  TERMINAL_BW: 192.7 g
  APTT: 17.8 s
  Bas: 0%
  Eos: 1%
  Fbg: 199.4 mg/dL
  Hb: 12.7 g/dL
  Ht: 38.6%
  Lym: 79.6%
  MCH: 22.2 pg
  MCHC: 32.9%
  MCV: 67.5 fL
  Mono: 7.8%
  Neu: 11.6%
  PT: 12.3 s
  Plat: 114.2 x10_4/uL
  RBC: 573.2 x10_4/ul
  Ret: 9.6%
  WBC: 93.3 x10_2/uL
  KIDNEY_L: 0.9 g
  KIDNEY_R: 0.9 g
  KIDNEY_TOTAL: 1.8 g
  LIVER: 8.2 g
  A/G: 2.4
  ALP: 800.8 IU/L
  ALT: 32.6 IU/L
  AST: 63 IU/L
  BUN: 12.2 mg/dL
  CRE: 0.6 mg/dL
  Ca: 10.4 mg/dL
  Cl: 104.6 meq/L
  DBIL: 0.064 mg/dL
  GLC: 190.4 mg/dL
  IP: 10.4 mg/dL
  K: 4.9 meq/L
  LDH: 82 IU/L
  Na: 138.2 meq/L
  PL: 126.4 mg/dL
  RALB: 3.7 g/dL
  TBIL: 0.3 mg/dL
  TC: 74.6 mg/dL
  TG: 42.8 mg/dL
  TP: 5.2 g/dL
  gamma-GTP: 0.8 IU/L
24 h
  TERMINAL_BW: 206.2 g
  APTT: 16.5 s
  Bas: 0%
  Eos: 0.8%
  Fbg: 211.2 mg/dL
  Hb: 12.6 g/dL
  Ht: 38.2%
  Lym: 75%
  MCH: 21.6 pg
  MCHC: 33.1%
  MCV: 65.4 fL
  Mono: 8.4%
  Neu: 15.6%
  PT: 11.5 s
  Plat: 106.9 x10_4/uL
  RBC: 584.2 x10_4/ul
  Ret: 10.1%
  WBC: 107.2 x10_2/uL
  KIDNEY_L: 0.9 g
  KIDNEY_R: 0.9 g
  KIDNEY_TOTAL: 1.8 g
  LIVER: 10.2 g
  A/G: 2.1
  ALP: 885.6 IU/L
  ALT: 38.6 IU/L
  AST: 66.4 IU/L
  BUN: 16.8 mg/dL
  CRE: 0.6 mg/dL
  Ca: 11 mg/dL
  Cl: 102.6 meq/L
  DBIL: 0.026 mg/dL
  GLC: 202.2 mg/dL
  IP: 8.4 mg/dL
  K: 4.6 meq/L
  LDH: 86.8 IU/L
  Na: 140.6 meq/L
  PL: 146.8 mg/dL
  RALB: 3.6 g/dL
  TBIL: 0.3 mg/dL
  TC: 81 mg/dL
  TG: 103 mg/dL
  TP: 5.4 g/dL
  gamma-GTP: 1.2 IU/L
